From patent publication US20160319277A1, “METHODS OF IMPROVED PROTEIN PRODUCTION USING MIRNAs AND SIRNAs” (THE JOHNS HOPKINS UNIVERSITY, priority 2015, published 2016) come the findings set out here.

This data set relates to HEK-CMV-Luc2-Hygro cells. Put plainly: High-throughput genome-wide siRNA screen and validation screen for luciferase expression. The class given is cell-based, human. The settings on record: for Viable cell density (%) / per cell luciferase yield (%): Table 4, negative control = 100%; for Viable cell density (%) / per cell luciferase yield (%) / per_cell / VIA: primary screen, 72 h; for Luciferase activity (%) / Per cell luciferase yield (%) / Viable cell number (%): Table 6, polyamine pathway gene siRNAs; for per_cell / VIA: Table 3; for per_cell: per cell luciferase yield relative to negative control; for VIA: viable cell density as % of negative control. The method, then: The Silencer Select™ Human genome siRNA library (Ambion), which targets 21,585 human genes with 3 siRNAs per gene, was used for screening. Each siRNA is arrayed in an individual well (Corning 3570, 384 well, white, solid bottom plates). The transfection was done in duplicates: 0.8 pmol of each siRNA was spotted to a well of a 384-well plate (Corning) and 20 μL of serum-free DMEM containing 0.07 μL of Lipofectamine™ RNAiMax (Life Technologies) was then added to each well. This lipid-siRNA mixture was incubated at ambient temperature for 30 min prior to addition of 4000 cells in 20 μL of DMEM containing 20% FBS (Gibco). After incubating the transfected cells at 37° C. in 5% CO2 for 72 hours, 20 μL of ONE-Glo™ Reagent (Promega) was added to one set of replicates for ‘overall luciferase yield’ quantification and 20 μL of CellTiter-Glo™ Reagent (Promega) was added to the second set of replicates for ‘viable cell density’ measurement. All plates were incubated at room temperature for 20 minutes to stabilize the luminescent signal and the signal was then measured with PerkinElmer Envision 2104 Multilabel™ plate reader.
The 56 genes which got targeted by at least two independent siRNAs (out of three) resulting in enhanced luciferase production with MAD-based z-score>3 from the primary screen were subjected to validation screen using 3 additional Silencer™ siRNAs (Ambion) with different sequences from those used in the primary screen. […] The transfection and assay processes were-the same as the primary genome-wide screen. Data visualization was performed in R computational environment (available on the World Wide Web at R-project.org/) by using ‘hexbin’ and ‘ggplot2’ packages.
The screen generated end-point data for ‘overall luciferase yield’ and ‘viable cell density’ in each well. For each plate, the median value of the negative control wells was set as 100% and was used to normalize corresponding sample wells. The ‘overall luciferase yield’ and ‘viable cell density’ were exported as % of negative control and the median absolute deviation (MAD)-based z-score was calculated for each sample.

As for “200 (GCAACAGAAUCGAGCAAGATT; chemistry not given here; listed as Homo sapiens) [compound 200]”, the “Viable cell density (%)” value came to 105.583% and the “per cell luciferase yield (%)” value came to 154.286%.

For “225 (GCUUGCAGUUAAUAUCAUUTT; chemistry not given here; listed as Homo sapiens) [compound 225]”, the “Luciferase activity (%)” value came to 28.4%, the “Per cell luciferase yield (%)” value came to 46.7% and the “Viable cell number (%)” value was found to be 60.8%.

As for “63 (CCUGGACAGUUUGAAGCAATT; chemistry not given here; listed as Homo sapiens) [compound 63]”, the per_cell turned out to be 174.9 and the VIA is listed as 88.01.

With “207 (CGCUCACCAACAGCAGAAATT; chemistry not given here; listed as Homo sapiens) [compound 207]”, the “Viable cell density (%)” value was 102.629% and the “per cell luciferase yield (%)” value came to 146.756%.

In turn, “81 (GUUUCAUCUGGGUUCGCUATT; chemistry not given here; listed as Homo sapiens) [compound 81]” had a per_cell of 233.6 and a VIA of 62.66.

Consider “39 (CGCUUUAACUGGAAGCUCUTT; chemistry not given here; listed as Homo sapiens) [compound 39]”, for which the per_cell was found to be 147 and the VIA was found to be 103.7.

As to “114 (GUCCUAUCACCGUAUCUUATT; chemistry not given here; listed as Homo sapiens) [compound 114]”, the “Viable cell density (%)” value was determined as 55.962% and the “per cell luciferase yield (%)” value is listed as 266.627%.

In turn, “83 (GCGGAAAAGGUAUCCCUCATT; chemistry not given here; listed as Homo sapiens) [compound 83]” gave a per_cell of 184.6 and a VIA of 80.17.

As for “51 (CCAGCGAUACAACUCCUAUTT; chemistry not given here; listed as Homo sapiens) [compound 51]”, the per_cell was 176.8 and the VIA is 83.64.

With “135 (CAGGUAGUGUAAGCCCUCATT; chemistry not given here; listed as Homo sapiens) [compound 135]”, the “Viable cell density (%)” value is listed as 66.872% and the “per cell luciferase yield (%)” value is on record as 302.994%.

Consider “180 (CCACCCUACUAUGUACUGUTT; chemistry not given here; listed as Homo sapiens) [compound 180]”, for which the “Viable cell density (%)” value was determined as 93.181% and the “per cell luciferase yield (%)” value is reported as 185.763%.

For the substance “128 (CAGCAAACCUUUGACCAGATT; chemistry not given here; listed as Homo sapiens) [compound 128]”, the “Viable cell density (%)” value was 55.405% and the “per cell luciferase yield (%)” value worked out at 277.511%.

With “182 (CAGUUACUUUCAAAACUCUTT; chemistry not given here; listed as Homo sapiens) [compound 182]”, the “Viable cell density (%)” value is reported as 91.714% and the “per cell luciferase yield (%)” value was found to be 202.960%.

With “111 (CAACCUUAUUAUCAUUGAATT; chemistry not given here; listed as Homo sapiens) [compound 111]”, the “Viable cell density (%)” value turned out to be 49.133% and the “per cell luciferase yield (%)” value came out at 300.611%.

Turning to “171 (CCCUGUUCAUUAUAAGUCUTT; chemistry not given here; listed as Homo sapiens) [compound 171]”, the “Viable cell density (%)” value was 279.253% and the “per cell luciferase yield (%)” value is 272.683%.

On to “223 (GAUGACUUUUGAUAGUGAATT; chemistry not given here; listed as Homo sapiens) [compound 223]”, for which the “Luciferase activity (%)” value came to 18.0%, the “Per cell luciferase yield (%)” value came out at 32.1% and the “Viable cell number (%)” value is reported as 56.1%.

Turning to “108 (CGGAAUCAAUGAUCCUGUATT; chemistry not given here; listed as Homo sapiens) [compound 108]”, the “Viable cell density (%)” value amounted to 71.395% and the “per cell luciferase yield (%)” value worked out at 212.652%.

As for “202 (GGAUGACGAGCUGAACUUUTT; chemistry not given here; listed as Homo sapiens) [compound 202]”, the “Viable cell density (%)” value stood at 113.437% and the “per cell luciferase yield (%)” value is given as 140.103%.

In the case of “145 (CCAGUUCGACCUGAACAAATT; chemistry not given here; listed as Homo sapiens) [compound 145]”, the “Viable cell density (%)” value is 85.750% and the “per cell luciferase yield (%)” value was 176.019%.

For the substance “124 (GAAUAACCGUUGGUUUAAUTT; chemistry not given here; listed as Homo sapiens) [compound 124]”, the “Viable cell density (%)” value turned out to be 65.083% and the “per cell luciferase yield (%)” value was found to be 292.710%.

As for “103 (GACAUUGGAUCAUACUAAATT; chemistry not given here; listed as Homo sapiens) [compound 103]”, the “Viable cell density (%)” value is recorded as 88.908% and the “per cell luciferase yield (%)” value is on record as 185.522%.

Consider “151 (GAAACUGCAUGAGAAGACATT; chemistry not given here; listed as Homo sapiens) [compound 151]”, for which the “Viable cell density (%)” value worked out at 59.084% and the “per cell luciferase yield (%)” value is 288.857%.

Consider “162 (CGAUAUGCUUUUCUACGUUTT; chemistry not given here; listed as Homo sapiens) [compound 162]”, for which the “Viable cell density (%)” value was 76.131% and the “per cell luciferase yield (%)” value came out at 235.013%.

“159 (GGAGUUCUUUGAUGAGAAATT; chemistry not given here; listed as Homo sapiens) [compound 159]”: the “Viable cell density (%)” value was 96.357% and the “per cell luciferase yield (%)” value is 157.243%.

On to “164 (GCAGGCACAUGGUUCCUCUTT; chemistry not given here; listed as Homo sapiens) [compound 164]”, for which the “Viable cell density (%)” value amounted to 83.512% and the “per cell luciferase yield (%)” value was 259.478%.

For the substance “221 (CCACGACCAGCUUAAAGAATT; chemistry not given here; listed as Homo sapiens) [compound 221]”, the “Luciferase activity (%)” value amounted to 90.5%, the “Per cell luciferase yield (%)” value is recorded as 94.5% and the “Viable cell number (%)” value is 95.76%.

On to “72 (GCUCCUCUGUUACCACAGATT; chemistry not given here; listed as Homo sapiens) [compound 72]”, for which the per_cell is recorded as 179.3 and the VIA is on record as 91.53.

Regarding “139 (GGAGAUAUGCAAAGCAGAATT; chemistry not given here; listed as Homo sapiens) [compound 139]”, the “Viable cell density (%)” value stood at 83.011% and the “per cell luciferase yield (%)” value is 194.043%.

“181 (GCUAAGUCUUUUCCACAGUTT; chemistry not given here; listed as Homo sapiens) [compound 181]”: the “Viable cell density (%)” value stood at 94.537% and the “per cell luciferase yield (%)” value is 155.385%.

For the substance “47 (GUACCUGCGGGAUUACUCATT; chemistry not given here; listed as Homo sapiens) [compound 47]”, the per_cell turned out to be 160.7 and the VIA worked out at 90.99.

As to “185 (GAAGAAGACUCUGUACUCATT; chemistry not given here; listed as Homo sapiens) [compound 185]”, the “Viable cell density (%)” value is reported as 66.511% and the “per cell luciferase yield (%)” value was determined as 215.853%.

Turning to “76 (CUUUUAAUGUUAAACUACATT; chemistry not given here; listed as Homo sapiens) [compound 76]”, the per_cell was 133.6 and the VIA was determined as 111.

Regarding “167 (CCUGGACAGUUUGAAGCAATT; chemistry not given here; listed as Homo sapiens) [compound 167]”, the “Viable cell density (%)” value is recorded as 88.009% and the “per cell luciferase yield (%)” value is on record as 174.946%.

Consider “173 (GACUAUUGAUACCAAAACATT; chemistry not given here; listed as Homo sapiens) [compound 173]”, for which the “Viable cell density (%)” value was determined as 82.689% and the “per cell luciferase yield (%)” value stood at 209.398%.

As for “161 (GCAGUGGACAUAGAAGAGATT; chemistry not given here; listed as Homo sapiens) [compound 161]”, the “Viable cell density (%)” value amounted to 110.815% and the “per cell luciferase yield (%)” value was found to be 140.658%.

As to “174 (GCAAUGCUUGCAAAACUCATT; chemistry not given here; listed as Homo sapiens) [compound 174]”, the “Viable cell density (%)” value turned out to be 90.976% and the “per cell luciferase yield (%)” value is listed as 189.252%.
